Results as given in BindingDB's records for doi:10.7270/Q2PC30S2 (Nmmlsc, 2010).

Target: Ras-related C3 botulinum toxin substrate 1 (Mus musculus, UniProt P63001)
Experiment: inhibitors of activated mutant Rac1 GTP binding, dose response, biochemical, multiplex, GST-Rac1 beads, Bodipy-FL-GTP, flow cytometry (AID 1339)

| Compound | EC50 |
| --- | --- |
| CNC(=S)N/N=C1\C(=O)Nc2ccccc21 [1-methyl-3-[(2-oxoindol-3-yl)amino]thiourea] | 91.6 µM |
| O=C1C([N+](=O)[O-])=Cc2oc3c(c2C1/C=N/Cc1ccccc1)CCCC3 (configuration not stated) [(1Z)-3-nitro-1-[[(phenylmethyl)amino]methylidene]-6,7,8,9-tetrahydrodibenzofuran-2-one] | 5.79 µM |
